From paper PMC8573827, “Zinc protoporphyrin binding to telomerase complexes and inhibition of telomerase activity” (Pharmacology Research & Perspectives, 2021)

How the values were obtained:
[1] = system: U2OS cells; test: MTT cell proliferation/viability assay, telomerase negative U2OS; format: cell-based, human; conditions: 48 h
Procedure: (§1) MPPs were tested for effects on cell proliferation and viability using MTT (3‐(4,5‐dimethylthiazol‐2‐yl)‐2,5‐diphenyltetrazolium bromide) dye conversion assay (Cell Titer 96, Promega) as we described[22] with some modifications. Cells were plated into 96 well plates and allowed to attach overnight. MPPs were added to the cultures and then incubated for the times indicated. At assay time, MTT reagent was added and absorbance measured at 570 nm. Controls included buffer blanks containing MPP because of background absorbances reported for MPPs by us[22] and others.[23] The formula used for determination of viable cells relative to controls was: %viablecells=(abssample‐absblank)/(absconrtrol‐absblank)×100

[2] = system: Huh7 cells; test: MTT cell proliferation/viability assay, Huh7; format: cell-based, human; conditions: Huh7, 10 µM MPP, 48 h
Procedure: as §1

[3] = system: high molecular weight complexes containing telomerase; test: Fluorescent labelling of cellular lysate complexes on non-denaturing 0.8% agarose gels; format: binding, human; conditions: Huh7 lysates, fluorescence visualization
Procedure: 0.8% Agarose gels were run in Tris‐Borate‐EDTA buffer using standard slab gels as described for high molecular weight complexes.[27] Cell lysates were produced by lysing Hek293 and Huh7 cells in NP40 buffer (25 mM HEPES‐KOH, 150 mM KCl, 1.5mM MgCl2, 10% glycerol, 0.5% NP40, 5 mM 2ME, pH 7.5 supplemented with protease inhibitors) for 30 min on ice. Extracts were clarified by centrifugation for 16 000 g for 10 min. The protein concentration was determined by Bradford assay. The indicated amounts of proteins were treated with different amounts of ZnPP for 2 h on ice, and then separated on 0.8% Agarose gels prepared with 0.5xTris‐Borate‐EDTA (TBE) buffer. The gels were run at 100 V for 2 h at 4 °C in 0.5x TBE buffer. […] No antibody and normal rabbit IgG (sc‐2027, Santa Cruz Biotechnology) were included as controls. The IP products were treated with ZnPP and electrophoresed as above. Free ZnPP and ZnPP bound to large complexes were visualized using a wide‐wavelength UV lightbox or with red fluorescence using excitation (EX) 608–632 nm and emission (EM) 675–720 nm. Thyroglobulin (670 kD), a heavy MW marker, was run in parallel lanes and visualized with Coomassie Blue staining or fluorescence to size the complexes. In some cases, cell lysates or IP were incubated with RNase A (Life Technologies, NY); or DNase 1 (Qiagen, CA) 100 µg/ml for 1 h at 4 °C prior to electrophoresis.

[4] = system: Hek293 cells; test: Annexin V apoptosis assay, Hek293; format: cell-based, human; conditions: Hek293, 10 µM, 48 h
Procedure: (§2) For detection of MPP apoptotic effects, cells were treated with MPPs (0, 2.5, 5 and 10 µM) for 48 h and assayed using PE Annexin V Apoptosis Detection Kit (Cat. No. 559763, BD Biosciences) as recommended by the manufacturer.

[5] = system: Hek293 cells; test: DNA synthesis, 3H-thymidine incorporation, Hek293; format: cell-based, human; conditions: Hek293, 10 µM MPP, 24–72 h
Procedure: (§3) Semi‐quantitative differences in DNA synthesis were determined by measuring ^3H‐thymidine uptake into whole cells in log phase growth. At indicated time points, cell cultures were washed with serum‐free, thymidine deficient medium, then incubated with fresh medium containing 1 μCi/ml of ^3H‐thymidine for two hours at 37°C. Cultures were washed twice with PBS while attached to dishes, then lysed with 0.5 M NaOH and the relative amount of ^3H‐thymidine quantified by scintillation counting.

[6] = system: TERT transfected U2OS cells; test: MTT viability assay in U2OS cells transfected with human TERT; format: cell-based; conditions: U2OS transfected with pCI neo-hEST2, ZnPP 48 h
Procedure: Lipofectamine^T ^M 2000 (ThermoFisher) was used for all transfections and closely followed the manufacturer's protocol. For TERT overexpression the catalytically active TERT plasmid pCI neo‐hEST2, a gift from Dr. Robert Weinberg (Addgene plasmid # 1781)[19] was used. Telomerase RNA component (TERC) plasmid (pBS U3‐hTR‐500) was also obtained from Addgene (plasmid # 28170), a gift from Dr. Kathleen Collins.[20], [21]
as §1

[7] = system: Huh7 cells; test: DNA synthesis, 3H-thymidine incorporation, Huh7; format: cell-based, human; conditions: Huh7, 10 µM MPP, 24–72 h
Procedure: as §3

[8] = system: U2OS cells; test: Annexin V apoptosis assay, U2OS; format: cell-based, human; conditions: 48 h
Procedure: as §2

[9] = molecular target: T1, Taq DNA polymerase (Thermus aquaticus, UniProt P19821); test: Taq polymerase inhibition test, MPP added after the telomerase extension step of TRAP; format: biochemical; conditions: TRAP, MPP added for the amplification steps only
T1 construct: purchased Perkin‐Elmer Cetus, Norwalk, CT
Procedure: For TRAP assay, a Quantitative Telomerase Detection Kit (US Biomax, Inc) was used to assay cellular lysates or TERT immunoprecipitates (IP) according to the manufacturer's directions. Relative telomerase activity was derived from a standard curve of reference samples and data were analyzed using relative fluorescence units as compared to controls. In some cases, telomerase reaction products were visualized and quantified with TRAPeze system (EMD/Millipore). After separation of the DNA products using 10% non‐denaturing PAGE and SYBR fluorescence labeling [1x SYBR safe DNA gel stain (Invitrogen)], gel bands were imaged with iBright 1500 (Invitrogen). The intensity of the sample's TRAP ladder and internal control was first measured using GelAnalyzer [GelAnalyzer 19.1 (www.gelanalyzer.com )] as recommended. Then, the relative telomerase activity was determined by the ratio of the intensity of the sample's TRAP ladder (telomerase products, TP) to that of the internal control (IC) band.
Because of concerns that some quadruplex ligands inhibit Taq DNA polymerase in addition to telomerase, we assayed MPP inhibition at both steps of the TRAP procedure with a strategy similar to that of others.[36] Using equivalent extracts but separate assays, MPP was either included in the telomerase RT extension step or the extension step was conducted without MPP and then MPP added only for the amplification steps with Taq DNA polymerase. To avoid further potential errors introduced by Real‐time quantification, TRAP products were labeled with SYBR green, visualized on denaturing gels, and each lane was quantified by density measurements as described in the Methods. The latter step also ruled out the possibility that decreases in activity were artifactual due to fluorescence signal quenching by some MPPs.[37] […] All three MPPs had minimal effects on Taq polymerase […] and the slight inhibition of Taq polymerase seen for ZnPP was not directly concentration‐dependent.
Enzymatic extracts were prepared from semi-confluent Huh7 cells and aliquots were assayed in triplicate using TRAP assay. CoPP was added to RT-PCR reactions either before or after the RT telomere elongation step to test whether it inhibited Taq polymerase. Visualization of amplified telomeric products was on 12% denaturing gels using SYBR fluorescence labelling (upper panels). Quantification was with densitometry as described in Methods and plot shown (lower panel). Plotted points represent the mean +/- SD with n =3. (IC)= internal Taq polymerase control.

[10] = system: Hek293 cells; test: MTT cell proliferation/viability assay, Hek293; format: cell-based, human; conditions: Hek293, 10 µM MPP, 48 h
Procedure: as §1

[11] = system: Huh7 cells; test: Annexin V apoptosis assay, Huh7; format: cell-based, human; conditions: Huh7, 10 µM, 48 h
Procedure: as §2

[12] = system: TERT, β-catenin, and cyclin D1 expression; test: Western blot of proliferative proteins in Huh7 cells; format: cell-based, human; conditions: Huh7, 48 h
Procedure: For SDS ‐PAGE, cellular lysates, and protein preparations such as IP were dissolved in Laemmli buffer, boiled for 1 min and separated on denaturing SDS gels as described.[28] After electrophoretic transfer of separated proteins to nitrocellulose sheets, western blot immunoassays employed enhanced chemiluminescence for signal detection (ECL^TM Prime, Amersham).[28]

T1 sequence (P19821 whole entry): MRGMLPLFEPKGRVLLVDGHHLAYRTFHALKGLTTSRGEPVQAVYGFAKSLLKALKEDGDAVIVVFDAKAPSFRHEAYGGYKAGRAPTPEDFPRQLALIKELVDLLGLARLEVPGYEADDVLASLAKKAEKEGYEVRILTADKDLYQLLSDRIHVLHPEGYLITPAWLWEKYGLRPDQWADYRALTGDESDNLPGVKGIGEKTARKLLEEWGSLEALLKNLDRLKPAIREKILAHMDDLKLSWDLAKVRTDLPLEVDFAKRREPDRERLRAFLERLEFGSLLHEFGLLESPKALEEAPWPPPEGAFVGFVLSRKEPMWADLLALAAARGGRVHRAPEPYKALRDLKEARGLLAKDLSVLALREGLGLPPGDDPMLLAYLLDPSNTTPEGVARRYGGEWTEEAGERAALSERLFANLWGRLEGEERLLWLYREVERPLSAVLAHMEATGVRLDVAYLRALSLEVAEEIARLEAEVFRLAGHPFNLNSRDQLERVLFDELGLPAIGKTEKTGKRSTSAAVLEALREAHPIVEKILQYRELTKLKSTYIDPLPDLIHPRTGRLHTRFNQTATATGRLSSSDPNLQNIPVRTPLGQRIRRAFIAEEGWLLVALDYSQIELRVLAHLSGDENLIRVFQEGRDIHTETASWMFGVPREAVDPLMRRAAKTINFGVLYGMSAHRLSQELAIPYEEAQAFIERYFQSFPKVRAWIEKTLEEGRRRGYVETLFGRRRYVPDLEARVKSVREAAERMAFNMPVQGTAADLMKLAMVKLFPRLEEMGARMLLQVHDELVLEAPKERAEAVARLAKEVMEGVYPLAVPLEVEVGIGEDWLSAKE

## C=CC1=C(C)c2cc3[n-]c(cc4nc(cc5[n-]c(cc1n2)c(C)c5C=C)C(C)=C4CCC(=O)O)c(CCC(=O)O)c3C.[Zn+2] [ZnPP, zinc protoporphyrin]
[1]
  Effect on proliferation in telomerase negative cells: only minor effects on proliferation
[2]
  Depression of cellular proliferation relative to vehicle only controls: greater than 50%
[3]
  Labelling/binding of cellular complexes on agarose gels: bound to high molecular weight complexes in a concentration dependent manner
[4]
  Apoptosis: ~50%
[5]
  Effect on DNA synthesis (3H-thymidine incorporation): severely attenuated DNA synthesis
[6]
  Sensitivity of viability after TERT transfection: restored ZnPP sensitivity
[7]
  Effect on DNA synthesis (3H-thymidine incorporation): severely attenuated DNA synthesis
[8]
  Effect on apoptosis in telomerase negative cells: failed to have an increased effect on apoptosis
[9]
  Effect on Taq polymerase: minimal inhibition
[10]
  Depression of cellular proliferation relative to vehicle only controls: greater than 50%
[11]
  Apoptosis: ~50%
[12]
  Effect on expression of TERT, β-catenin and cyclin D1 (western blot): nearly eliminated
